Measured values as given in US20200062696A1, “COMPOSITIONS AND METHODS FOR INHIBITING RETICULON 4” (THE REGENTS OF THE UNIVERSITY OF CALIFORNIA, priority 2017, published 2020).
Entries after “also recorded” stand apart in the source; their conditions may differ.

Assays:
[1] = tested on: SW620 colorectal cancer cells; test: Serum-free cell survival of SW620 cells (Hoescht staining); format: cell-based; settings: 50 μM, 24 h
pure human RTN4 protein = molecular target: T1, pure human RTN4 protein (Homo sapiens, UniProt Q9NQC3); test: Gel-based ABPP competition against IAyne labeling of pure human RTN4 protein; format: binding
T1 construct: purchased Fisher Scientific
T1 sequence (Q9NQC3 1-1192): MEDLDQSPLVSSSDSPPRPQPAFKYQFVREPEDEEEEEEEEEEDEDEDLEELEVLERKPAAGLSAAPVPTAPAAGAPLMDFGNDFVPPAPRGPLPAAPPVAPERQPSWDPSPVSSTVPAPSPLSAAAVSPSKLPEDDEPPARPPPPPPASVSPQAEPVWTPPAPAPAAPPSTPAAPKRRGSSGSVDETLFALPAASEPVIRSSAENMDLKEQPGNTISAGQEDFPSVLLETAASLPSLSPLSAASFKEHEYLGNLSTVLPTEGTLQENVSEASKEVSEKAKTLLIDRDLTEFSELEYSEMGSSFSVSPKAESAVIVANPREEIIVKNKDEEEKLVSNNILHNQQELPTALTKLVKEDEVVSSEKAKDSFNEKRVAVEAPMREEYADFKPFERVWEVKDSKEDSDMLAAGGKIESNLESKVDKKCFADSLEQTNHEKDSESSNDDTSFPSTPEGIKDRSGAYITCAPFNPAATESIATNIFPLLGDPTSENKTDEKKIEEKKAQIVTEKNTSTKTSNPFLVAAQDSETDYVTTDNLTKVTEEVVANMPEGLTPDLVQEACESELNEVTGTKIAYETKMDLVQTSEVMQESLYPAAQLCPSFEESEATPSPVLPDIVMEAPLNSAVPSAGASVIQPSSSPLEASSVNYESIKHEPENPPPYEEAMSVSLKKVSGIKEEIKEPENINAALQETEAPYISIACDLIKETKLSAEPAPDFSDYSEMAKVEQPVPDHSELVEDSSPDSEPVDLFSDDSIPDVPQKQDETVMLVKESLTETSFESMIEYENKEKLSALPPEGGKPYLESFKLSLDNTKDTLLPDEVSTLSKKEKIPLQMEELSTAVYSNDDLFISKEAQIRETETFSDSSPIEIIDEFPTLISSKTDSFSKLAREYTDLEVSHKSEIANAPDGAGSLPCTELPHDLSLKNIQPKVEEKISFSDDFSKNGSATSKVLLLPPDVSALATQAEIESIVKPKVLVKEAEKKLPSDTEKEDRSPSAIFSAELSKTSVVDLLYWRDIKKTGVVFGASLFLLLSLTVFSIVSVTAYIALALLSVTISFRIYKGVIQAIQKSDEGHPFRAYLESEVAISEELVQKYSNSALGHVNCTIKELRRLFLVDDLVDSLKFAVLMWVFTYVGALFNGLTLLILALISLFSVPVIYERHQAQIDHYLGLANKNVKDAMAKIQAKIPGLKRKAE
Description: (§1) FIGS. 11A-11C. DKM 3-30 and analogs. (FIG. 11A) Structures of DKM 3-30 and analogs. (FIG. 11B) Gel-based ABPP analysis showing competition side-by-side competition studies of DKM 3-30, YP 1-46, and AMR 1-125 against IA-rhodamine labelling of pure human RTN4. Shown are the 50% inhibitory concentration (IC50) values for each compound. (FIG. 11C) Serum-free cell survival of U2OS (48 h) or SW620 (24 h) cells treated with DMSO vehicle or each compound (50 μM). Data in (C) are presented as mean±sem. Significance is expressed as *p<0.001 compared to vehicle-treated controls.
Gel-Based ABPP. Gel-based ABPP methods were performed as previously described^24. Recombinant RTN4 (0.06 μg) protein (RTN4-Fisher Scientific) were pre-treated with DMSO or DKM 3-30, respectively, for 1 h at 37° C. in an incubation volume of 50 μL PBS, and were subsequently treated with IAyne (10 μM final concentration) for 30 min at 37° C. CuAAC was performed to append rhodamine-azide onto IAyne probe-labeled proteins. The samples were separated by SDS/PAGE and scanned using a ChemiDoc MP (Bio-Rad Laboratories, Inc). Inhibition of target labeling was assessed by densitometry using ImageStudio Light software.

[2] = tested on: U2OS cells expressing GFP-tagged Sec61β; test: ER morphology by fluorescence microscopy in U2OS cells expressing GFP-Sec61β; format: cell-based; settings: DKM 3-30 50 μM (8 hr, 16 hr, time-lapse); AMR 1-125 1 μM; YP 1-46 50 μM
Description: Fluorescence microscopy. SW620 and U2OS cells were transiently transfected with a plasmid encoding GFP-tagged Sec61β using fuGENE6 (Roche) according to the manufacturer's instructions. Transfected cells plated on poly-L-lysine treated coverslips were treated, washed in PBS, and fixed by incubation in 4% paraformaldehyde in PBS for 10 min. Fixed cells were washed extensively in PBS and nuclei stained by addition of 4′,6-diamidino-2-phenylindole (DAPI) (Thermo Fisher Scientific) for 10 min. Coverslips were mounted using Fluoromount-G (SouthernBiotech) and visualized using a DeltaVision Elite microscope outfitted with a 60× oil immersion objective. Acquired stacks of images of fixed cells were deconvolved and analyzed using SoftWoRx and ImageJ. For time-lapse imaging of live cells, transfected cells were plated on poly-L-lysine treated glass-bottom 4-well imaging chambers (Lab-Tek II; Thermo Fisher Scientific). Imaging was performed using a DeltaVision Elite microscope encased in a chamber that was maintained at 37° C. and was continuously perfused with humidified 5% CO2. Acquired images were analyzed using SoftWoRx and ImageJ.

U2OS osteosarcoma cells = test: Serum-free cell survival of U2OS cells; format: cell-based; settings: 50 μM, 48 h
Description: as §1
(§2) Cell Culture. SW620 cells were purchased from ATCC. SW620 cells were grown in L-15 media with 10% fetal bovine serum (FBS) in ambient CO2. U2OS cells were grown in DMEM media supplemented with 10% FBS at 37° C. with 5% CO2.
(§3) Survival and Proliferation Assays. Cells were plated the evening before the experiment, and allowed to adhere overnight. For serum-free cell survival assays, cells were plated in media not containing FBS. For cell proliferation assays, cells were plated in regular media. For the chemical genetics screen, cells were treated with either DMSO or the cysteine-reactive fragment for 48 h and cell viability was assessed by Hoescht stain using our previously described methods

[3] = tested on: SW620 colorectal cancer cells; test: Serum-free cell survival of SW620 cells (Hoescht staining); format: cell-based; settings: Homo sapiens, SW-620, cysteine-reactive fragment 50 μM, 48 h, vs DMSO, average of n = 3/group, read-out: SW620 survival Ave
Description: as §2, §3

[4] = tested on: SW620 colorectal cancer cells; test: Cell proliferation of SW620 cells (Hoescht staining); format: cell-based; settings: Homo sapiens, SW-620, cysteine-reactive fragment 50 μM, 48 h, vs DMSO, average of n = 3/group, read-out: SW620 proliferation Ave
Description: as §2, §3

Row | Structure (SMILES) | viability at 50 µM [3] | activity at 50 µM [4] | further results
1 | C=CC(=O)Nc1ccc(Oc2ccc(C(C)(C)C)cc2)cc1 [AMR 1-125, N-(4-(4-(tert-butyl)phenoxy)phenyl)acrylamide] |  |  | cell survival in SW620 cells [1]: impaired; improved potency compared to DKM 3-30 (pure human RTN4 protein; competition against probe labelling of pure human RTN4, from IC50 values of FIG. 11B): ~7 fold; ER morphology in U2OS cells [2]: impaired; also recorded: alters ER morphology; cell survival in U2OS cells (U2OS osteosarcoma cells): impaired
2 | C=CC(=O)NC(C)CC (stereo not drawn) [DKM 3-32, N-(sec-butyl)acrylamide] | 70% | 95% | 
3 | C=CC(=O)N1CCN(c2ccc(OC)cc2)CC1 [DKM 3-36, 1-(4-(4-methoxyphenyl)piperazin-1-yl)prop-2-en-1-one] | 54% | 97% | 
4 | C=CC(=O)NC(c1ccccc1)(c1ccccc1)c1ccccc1 [DKM 3-41, N-tritylacrylamide] | 55% | 93% | 
5 | C=CC(=O)NC/C=C(\C)CCC=C(C)C [DKM 3-42, (E)-N-(3,7-dimethylocta-2,6-dien-1-yl)acrylamide] | 104% | 112% | 
6 | C=CC(=O)NCc1ccc2c(c1)OCO2 [DKM 3-43, N-(benzo[d][1,3]dioxol-5-ylmethyl)acrylamide] | 52% | 94% | 
7 | C=CC(=O)N(c1ccccc1)c1ccccc1 [DKM 3-70, N,N-diphenylacrylamide] | 57% | 53% | 
8 | C=CC(=O)NCCCCCCCCCC [TRH 1-12, N-decylacrylamide] | 49% | 89% | 
9 | C=CC(=O)NCc1ccc(OC)cc1OC [TRH 1-13, N-(2,4-dimethoxybenzyl)acrylamide] | 94% | 128% | 
10 | C=CC(=O)Nc1ccccc1 [TRH 1-19, N-Phenylacrylamide] | 101% | 119% | 
11 | C=CC(=O)NC(C)c1ccccc1 (stereo not drawn) [TRH 1-20, N-(1-phenylethyl)acrylamide] | 114% | 121% | 
12 | C=CC(=O)N1CCCCC1CC (stereo not drawn) [TRH 1-27, 1-(2-ethylpiperidin-1-yl)prop-2-en-1-one] | 144% | 125% | 
13 | C=CC(=O)Nc1ccc(OC)cc1 [TRH 1-32, N-(4-methoxyphenyl)acrylamide] | 55% | 100% | 
14 | C=CC(=O)Nc1ccc(C(F)(F)F)cc1 [TRH 1-50, N-(4-(trifluoromethyl)phenyl)acrylamide] | 58% | 76% | 
15 | CCCN(C)C(=O)CCl [TRH 1-53, 2-Chloro-N-methyl-N-propylacetamide] | 69% | 72% | 
16 | C=CC(=O)NCc1ccccc1C [TRH 1-54, N-(2-methylbenzyl)acrylamide] | 175% | 139% | 
17 | Cc1ccccc1CNC(=O)CCl [TRH 1-55, 2-Chloro-N-(2-methylbenzyl)acetamide] | 47% | 53% | 
18 | C=CC(=O)Nc1ccc(Oc2ccc(OC)cc2)cc1 [YP 1-46, N-(4-(4-methoxyphenoxy)phenyl)acrylamide] |  |  | displacement of IAyne labelling of RTN4 (pure human RTN4 protein; pure human RTN4 protein, gel-based ABPP): less displacement; ER morphology in U2OS cells [2]: not; cell survival in U2OS cells (U2OS osteosarcoma cells): not
